Experimental data published in the supplement of paper PMC10307832.

Columns and labels:
Assay in all cases: relative viability (nuclei count vs DMSO), 5 days (fraction); higher = more cells survive
Zosuquidar + Trametinib = compound: O[C@@H](COc1cccc2ncccc12)CN1CCN([C@@H]2c3ccccc3[C@@H]3[C@H](c4ccccc42)C3(F)F)CC1 [Zosuquidar] + CC(=O)Nc1cccc(-n2c(=O)n(C3CC3)c(=O)c3c(Nc4ccc(I)cc4F)n(C)c(=O)c(C)c32)c1 [Trametinib] (partner 0.02 µM)
Outline: (§1)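 Dosing by pin tool came one day after lung cancer cell lines were seeded in 1536-well plates, using either one drug or a fixed anchor-drug dose plus five library-drug doses (not always all listed) in √10 steps. After 5 days, nuclei were counted on 4× images. Relative viability is treated-well nuclei count divided by vehicle-well nuclei count, and values are medians of duplicate plates.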

[1] = compound: COc1cc2nccc(Oc3ccc(NC(=O)C4(C(=O)Nc5ccc(F)cc5)CC4)cc3)c2cc1OC [Cabozantinib] + CS(=O)(=O)N1CCN(Cc2cc3nc(-c4cccc5[nH]ncc45)nc(N4CCOCC4)c3s2)CC1 [Pictilisib] (partner 1 µM)
Outline: as §1

Zosuquidar + Luminespib = compound: O[C@@H](COc1cccc2ncccc12)CN1CCN([C@@H]2c3ccccc3[C@@H]3[C@H](c4ccccc42)C3(F)F)CC1 [Zosuquidar] + CCNC(=O)c1noc(-c2cc(C(C)C)c(O)cc2O)c1-c1ccc(CN2CCOCC2)cc1 [Luminespib] (partner 0.01 µM)
Outline: as §1

[2] = compound: COc1cc2nccc(Oc3ccc(NC(=O)C4(C(=O)Nc5ccc(F)cc5)CC4)cc3)c2cc1OC [Cabozantinib] + CCNC(=O)c1noc(-c2cc(C(C)C)c(O)cc2O)c1-c1ccc(CN2CCOCC2)cc1 [Luminespib] (partner 0.01 µM)
Outline: as §1

With UMC-11 the relative viability (Zosuquidar + Trametinib; first compound 0.01 µM) was 0.668, the relative viability (Zosuquidar + Trametinib; first compound 0.03162 µM) was 0.758 and the relative viability (Zosuquidar + Trametinib; first compound 0.1 µM) was 0.623. For the same cell line, the relative viability (Zosuquidar + Trametinib; first compound 0.3162 µM) was 0.833, the relative viability (Zosuquidar + Trametinib; first compound 1 µM) was 0.606 and the relative viability ([1]; first compound 0.02 µM) was 0.804. It also gave a relative viability ([1]; first compound 0.06325 µM) of 0.96, a relative viability ([1]; first compound 0.2 µM) of 0.8 and a relative viability ([1]; first compound 0.6325 µM) of 0.782. It also gave a relative viability ([1]; first compound 2 µM) of 0.76, a relative viability (Zosuquidar + Luminespib; first compound 0.01 µM) of 0.97 and a relative viability (Zosuquidar + Luminespib; first compound 0.03162 µM) of 0.943. The relative viability (Zosuquidar + Luminespib; first compound 0.1 µM) was 1.08, the relative viability (Zosuquidar + Luminespib; first compound 0.3162 µM) was 1.1 and the relative viability (Zosuquidar + Luminespib; first compound 1 µM) was 1.18. For the same cell line, the relative viability ([2]; first compound 0.02 µM) was 0.941, the relative viability ([2]; first compound 0.06325 µM) was 1.09 and the relative viability ([2]; first compound 0.2 µM) was 1.1. The relative viability ([2]; first compound 0.6325 µM) was 1.09 and the relative viability ([2]; first compound 2 µM) was 1.09.
